From patent US20020026053A1, “Novel 3-(substituted) -2- indolinones compounds and use thereof as inhibitors of protein kinase activity” (priority 1997, published 2002)

Experiments:
FLK-1 receptor = assay: FLK-1 Assay (cellular/catalytic ELISA, VEGF-stimulated phosphotyrosine); format: cell-based; set-up: concentration or dose not given beside the values; conditions: protocol P.110
Outline: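 Receptor phosphotyrosine ELISA: Flk-1-expressing NIH3T3 C7#3 cells, starved overnight in 0.1% FBS medium, received compound (1:200 final dilution, 0.5% DMSO) for 2 h at 37 °C, then VEGF. Anti-FLK-1-captured receptor was probed with anti-phosphotyrosine UB40 and peroxidase/ABTS read-out, relative to cells without compound.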

PDGF-R = PDGF-R Assay (cellular ELISA, U1242 cells); format: cell-based; set-up: concentration or dose not given beside the values; conditions: protocol P.119
Outline: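 Cellular ELISA for receptor autophosphorylation: after 2 hr test-compound treatment of serum-free U1242 cells at 37°C, ligand is added for 5–10 min, cells are lysed (HNTG) and receptor captured by specific antibody. Anti-phosphotyrosine plus secondary antibody with ABTS colour read at 410/630 nm, compared with compound-free control cells.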

Cc1c(Br)cc(Br)c2c1C(=Cc1ccc(CO)o1)C(=O)N2 [10739/H11]
Flk Kinase % Inhibition (P.110) (FLK-1 receptor): −7.6%
PDGF Kinase % Inhibition (P.119) (PDGF-R): 4.2%
